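Method: 48-hour compound exposure of cells in 96-well plates, five concentrations, linear interpolation of endpoints. Abbreviation: GI50, concentration required for 50% inhibition of growth. TGI marks complete inhibition of growth.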
Assays:
Test in all cases: NCI anticancer screen, dose series, 48 h
[1] = test system: OVCAR-3 ovarian
[2] = test system: SW-620 colon
[3] = test system: SF-295 CNS
[4] = test system: SNB-78 CNS
[5] = test system: NCI-H23 lung
[6] = test system: SK-MEL-2 melanoma
[7] = test system: OVCAR-4 ovarian
[8] = test system: HCT-15 colon
[9] = test system: DMS 273 small cell lung
[10] = test system: SK-MEL-28 melanoma
[11] = test system: HT29 colon
[12] = test system: CCRF-CEM leukemia
[13] = test system: SNB-19 CNS
[14] = test system: DLD-1 colon
[15] = test system: NCI-H226 lung
[16] = test system: UACC-62 melanoma
[17] = test system: UO-31 renal
[18] = test system: SK-OV-3 ovarian
[19] = test system: NCI-H522 lung
[20] = test system: 786-0 renal
[21] = test system: A498 renal
[22] = test system: M14 melanoma
[23] = test system: HOP-62 NSCLC
[24] = test system: OVCAR-5 ovarian
[25] = test system: COLO 205 colon
[26] = test system: KM12 colon
[27] = test system: IGROV1 ovarian
[28] = test system: SNB-75 CNS
[29] = test system: SK-MEL-5 melanoma
[30] = test system: UACC-257 melanoma
[31] = test system: MALME-3M melanoma
[32] = test system: XF 498 CNS
[33] = test system: LOX IMVI melanoma
[34] = test system: SR leukemia
[35] = test system: OVCAR-8 ovarian
[36] = test system: MOLT-4 leukemia
[37] = test system: NCI-H460 lung
[38] = test system: HOP-18 NSCLC
[39] = test system: SF-268 CNS
[40] = test system: ACHN renal
[41] = test system: EKVX NSCLC
[42] = test system: K-562 leukemia
[43] = test system: HOP-92 NSCLC
[44] = test system: HCC-2998 colon
[45] = test system: KM20L2 colon
[46] = test system: A549 NSCLC
[47] = test system: SN12C renal
[48] = test system: RXF 393 renal
[49] = test system: DMS 114 small cell lung
[50] = test system: U251 CNS
[51] = test system: TK-10 renal
[52] = test system: CAKI-1 renal
[53] = test system: HCT-116 colon
[54] = test system: SF-539 CNS
[55] = test system: HL-60(TB) leukemia
[56] = test system: RPMI-8226 leukemia
[57] = test system: M19-MEL melanoma
[58] = test system: LXFL 529 NSCLC

NS(=O)(=O)c1cc2c(cc1Cl)NC(C(=O)c1cc(=O)c3ccc(O)cc3o1)=NS2(=O)=O
TGI [1]: > 100 µM | TGI [2]: > 100 µM | TGI [3]: > 100 µM | TGI [4]: > 100 µM | TGI [5]: > 100 µM | TGI [6]: > 100 µM | TGI [7]: > 100 µM | TGI [8]: > 100 µM | TGI [9]: > 100 µM | TGI [10]: > 100 µM | TGI [11]: > 100 µM | TGI [12]: > 100 µM | TGI [13]: > 100 µM | TGI [14]: > 100 µM | TGI [15]: > 100 µM | TGI [16]: > 100 µM | TGI [17]: > 100 µM | TGI [18]: > 100 µM | TGI [19]: > 100 µM | TGI [20]: > 100 µM | TGI [21]: > 100 µM | TGI [22]: > 100 µM | TGI [23]: > 100 µM | TGI [24]: > 100 µM | TGI [25]: > 100 µM | TGI [26]: > 100 µM | TGI [27]: > 100 µM | TGI [28]: > 100 µM | TGI [29]: > 100 µM | TGI [30]: > 100 µM | TGI [31]: > 100 µM | TGI [32]: > 100 µM | TGI [33]: > 100000 nM | TGI [34]: > 100 µM | TGI [35]: > 100 µM | TGI [36]: > 100 µM | TGI [37]: > 100 µM | TGI [38]: > 100 µM | TGI [39]: > 100 µM | TGI [40]: > 100 µM | TGI [41]: > 100 µM | TGI [42]: > 100 µM | TGI [43]: > 100 µM | TGI [44]: > 100 µM | TGI [45]: > 100 µM | TGI [46]: > 100 µM | TGI [47]: > 100 µM | TGI [48]: > 100 µM | TGI [49]: > 100 µM | TGI [50]: > 100 µM | TGI [51]: > 100 µM | TGI [52]: > 100 µM | TGI [53]: > 100 µM | TGI [54]: > 100 µM | TGI [55]: > 100 µM | TGI [56]: > 100 µM | TGI [57]: > 100 µM

COC12C=CC(CC1)c1c(O)ccc(O)c12 (centres undefined)
TGI [1]: 44.2 µM | TGI [2]: > 63.8 µM | TGI [3]: > 100 µM | TGI [4]: > 100 µM | TGI [5]: > 100 µM | TGI [6]: > 76.3 µM | TGI [7]: 46.6 µM | TGI [8]: > 55.9 µM | TGI [9]: > 87 µM | TGI [10]: > 100 µM | TGI [11]: > 100 µM | TGI [12]: 65.1 µM | TGI [13]: > 100 µM | TGI [14]: > 100 µM | TGI [15]: > 100 µM | TGI [16]: > 100 µM | TGI [17]: > 100 µM | TGI [18]: > 100 µM | TGI [19]: 35.1 µM | TGI [20]: > 100 µM | TGI [21]: > 100 µM | TGI [22]: > 100 µM | TGI [23]: > 100 µM | TGI [24]: > 100 µM | TGI [25]: 57 µM | TGI [26]: > 100 µM | TGI [27]: > 100 µM | TGI [28]: > 100 µM | TGI [29]: > 100 µM | TGI [30]: > 100 µM | TGI [31]: > 100 µM | TGI [32]: 44 µM | TGI [34]: 36.3 µM | TGI [58]: > 71300 nM | TGI [35]: > 70.1 µM | TGI [36]: > 79 µM | TGI [37]: > 100 µM | TGI [38]: > 100 µM | TGI [39]: > 31.6 µM | TGI [40]: > 61.4 µM | TGI [41]: > 100 µM | TGI [42]: 61.8 µM | TGI [44]: > 100 µM | TGI [45]: > 100 µM | TGI [46]: > 100 µM | TGI [47]: > 100 µM | TGI [48]: > 100 µM | TGI [49]: > 100 µM | TGI [50]: > 100 µM | TGI [51]: > 67.1 µM | TGI [52]: > 100 µM | TGI [53]: > 100 µM | TGI [54]: > 100 µM | TGI [55]: 41.6 µM | TGI [56]: > 100 µM | TGI [57]: > 55.4 µM

CCC[CH2][Sn]([CH2]CCC)([O]C(C)=O)[O]C(C)=O
GI50 [1]: 1530 nM | TGI [1]: 3.02 µM | GI50 [2]: 694 nM | TGI [2]: 2.65 µM | GI50 [3]: 1850 nM | TGI [3]: 3.79 µM | GI50 [4]: 511 nM | TGI [4]: 2.33 µM | GI50 [5]: 1210 nM | TGI [5]: 2.91 µM | GI50 [6]: 542 nM | TGI [6]: 1.95 µM | GI50 [7]: 1790 nM | TGI [7]: 3.5 µM | GI50 [8]: 1430 nM | TGI [8]: 3.14 µM | GI50 [9]: 2190 nM | TGI [9]: 7.04 µM | GI50 [10]: 1000 nM | TGI [10]: 2.27 µM | GI50 [11]: 1700 nM | TGI [11]: 3.53 µM | GI50 [12]: 197 nM | TGI [12]: 0.832 µM | GI50 [13]: 1140 nM | TGI [13]: 2.35 µM | GI50 [14]: 1190 nM | TGI [14]: 2.58 µM | GI50 [15]: 1530 nM | TGI [15]: 3.01 µM | GI50 [16]: 1090 nM | TGI [16]: 2.37 µM | GI50 [17]: 1720 nM | TGI [17]: 3.13 µM | GI50 [18]: 1930 nM | TGI [18]: 3.95 µM | GI50 [19]: 147 nM | TGI [19]: 0.324 µM | GI50 [20]: 1480 nM | TGI [20]: 2.83 µM | GI50 [22]: 1740 nM | TGI [22]: 4.26 µM | GI50 [23]: 2170 nM | TGI [23]: 3.9 µM | GI50 [24]: 1230 nM | TGI [24]: 2.71 µM | GI50 [25]: 1810 nM | TGI [25]: 4.29 µM | GI50 [26]: 1660 nM | TGI [26]: 3.77 µM | GI50 [27]: 1320 nM | TGI [27]: 1.96 µM | GI50 [28]: 1020 nM | TGI [28]: 2.63 µM | GI50 [29]: 1040 nM | TGI [29]: 2.4 µM | GI50 [30]: 1390 nM | TGI [30]: 3.26 µM | GI50 [31]: 994 nM | TGI [31]: 2.36 µM | GI50 [32]: 1210 nM | TGI [32]: 2.49 µM | GI50 [33]: 916 nM | TGI [33]: 2400 nM | GI50 [34]: 571 nM | TGI [34]: 4.72 µM | GI50 [58]: 241 nM | TGI [58]: 1240 nM | GI50 [35]: 1900 nM | TGI [35]: 4.6 µM | GI50 [36]: 505 nM | TGI [36]: 4.59 µM | GI50 [37]: 2600 nM | TGI [37]: 7.55 µM | GI50 [38]: 1420 nM | TGI [38]: 2.72 µM | GI50 [39]: 1230 nM | TGI [39]: 4.1 µM | GI50 [40]: 1440 nM | TGI [40]: 2.75 µM | GI50 [41]: 1840 nM | TGI [41]: 4.94 µM | GI50 [42]: 299 nM | TGI [42]: 2.59 µM | GI50 [43]: 1920 nM | TGI [43]: 4.13 µM | GI50 [44]: 1530 nM | TGI [44]: 2.92 µM | GI50 [45]: 1900 nM | TGI [45]: 3.81 µM | GI50 [46]: 3.65 µM | TGI [46]: 15.3 µM | GI50 [47]: 1240 nM | TGI [47]: 2.54 µM | GI50 [48]: 195 nM | TGI [48]: 0.654 µM | GI50 [50]: 888 nM | TGI [50]: 2.09 µM | GI50 [51]: 1380 nM | TGI [51]: 2.74 µM | GI50 [52]: 638 nM | TGI [52]: 2.23 µM | GI50 [53]: 1560 nM | TGI [53]: 3.26 µM | GI50 [54]: 1530 nM | TGI [54]: 3.19 µM | GI50 [55]: 524 nM | TGI [55]: 1.45 µM | GI50 [56]: 321 nM | TGI [56]: 2.11 µM | TGI [57]: 5.12 µM

From PubChem BioAssay (NCI)
